Patent publication US5705649A, “Protein staining compositions and methods” (Promega Corporation, priority 1995, dated 1998)

Assays:
[1] = tested on: Promega Mid Range Molecular Weight standard; assay: Post-electrophoretic staining with fluorescein isothiocyanate derivatives; conditions: for lowest protein per band stained: after overnight in 10% methanol; for lowest protein per band with visible bands / standards detected: 1:500 in 10% methanol, 1 hour, destained 30 min
Protocol: Six 12% gels were made as described in Example 27 and were loaded with diluted Promega Mid Range Molecular Weight standard to produce lanes containing, per band, 1000, 500, 200, 100, 75, 50, 25 and 10 ng of protein. The gel was run as described in Example 27 and then the gels were incubated 15 min in 50% methanol. The gels were then transferred to individual 50 ml staining solutions, which were stock derivatized dye solutions of Example 36 diluted 1:500 with 10% methanol. After one hour, these solutions were removed and destaining with 50 ml of 10% methanol was performed. After an additional 30 min. the gels were visualized on a transilluminator and photographed. Protein bands were visible for the gels stained with amino fluorescein and p-amino benzoic acid fluorescein derivatives, however the bands were seen only in the lanes containing 1000, 500, and 200 ng of protein per band. […] At this point, the gel stained with the ethyl p-amino benzoyl derivative allowed detection of all of the proteins in the lanes containing as little as 75 ng of protein per band.
The gels were then placed in 50 ml of 10% methanol and allowed to incubate overnight at room temperature. After overnight incubation, the gels were visualized on a transilluminator and photographed. […] The gel stained with the amino derivative (reaction 5) had faded to the point where protein species were only detected in the 1000 and 500 ng protein per band lanes. However, in these lanes, only particular protein species were stained, as described above.

[2] = tested on: Promega Mid Range Molecular Weight Standards; assay: Detection of fractionated protein in SDS-PAGE gels using dansyl derivatives made in acetone; conditions: for lowest protein per band visible: 2% (v/v) eluate in 10% methanol
Protocol: Several 15-well, SDS-PAGE minigels were poured as described in Example 27 and loaded with Promega Mid Range Molecular Weight Standards diluted as described in Example 27 to provide samples containing 1000, 300, 100, 50, 25, 12.5, and 6.25ng of each protein per band in separate lanes of the gel. The samples were fractionated by application of 20 mA per gel until the tracking dye reached the bottom of the gel. All the gels were placed in 10% trichloroacetic acid for 5 min and then incubated for 10 min in 10% (v/v) methanol. The gels were then incubated in a 10% methanol solution containing 2% (v/v) of the derivative eluates (dissolved in 50 ml ethanol) described in Example 28. The gels were transferred to a transilluminator and both visualized and photographed after two hours of staining. The following observations were made. Only the lanes containing 1000 and 300ng of protein per band were visible in the gel incubated with the n-butyl dansyl derivative. The lanes containing the 1000, 300, 100, 50, 25ng per band were visible in the gel incubated with the n-hexyl derivative as were some of the bands in the 12.5 ng per band lane.
After overnight incubation in the stain solutions, the gels were re-observed and rephotographed.
The gels were then placed in 1% acetic acid to remove any unbound stain and rephotographed after three hours of incubation in this solution at room temperature.

[3] = tested on: Promega Mid Range Molecular Weight Standards; assay: Post-electrophoretic detection of protein with purified dansyl derivatives
Protocol: Samples of the eluates from purification of the derivatives were diluted 20-fold with ethanol and the absorption of the resulting solutions from 400 to 220 nm was measured. The absorption of the solutions at 328 nm was used as an indication of the concentration of the derivative in the staining studies in Example 27.
Several SDS-PAGE minigels were made as described in Experiments with Gene Fusions, Silhavy, Berman, Enquist, supra, using the SDS concentrations described by the authors. Samples of Promega Mid Range Molecular Weight Standards were diluted into the loading solution described in the reference above to produce solutions containing 200, 100, 50, 25, and 12.5 ng of each protein species in 10 μl of solution. These solutions were loaded onto the gels and the samples were fractionated in the gels by application of 10 mA per gel until the tracking dye for the samples reached the bottom of the gel. The gels were then rinsed 1 min in distilled water, 15 min in 10% trichloracetic acid (w/v), and then for 15 min in 10% methanol (v/v). The gel segments, approximately 5×6 cm containing the fractionated standard, were then transferred to a 2% ethanol solution (50 ml) containing 0.05 OD328 -equivalent of each of the dansyl derivatives (see Example 26).
The gel segments were returned to their respective staining solutions and were incubated overnight. The following morning, all of the gel segments were again visualized on the transilluminator and photographed as described above. […] In general, relatively equivalent staining of bands was obtained as determined by the strength of the fluorescent signal observed for the various fractionated species.

[4] = tested on: Promega Mid-Range Molecular Weight Markers; assay: Enhancement of staining of proteins in SDS-PAGE gels in 5% acetic acid; conditions: 5% acetic acid
Protocol: The gels described above were placed in 5% acetic acid following the termination of the electrophoretic separation. Within one to two minutes the gel developed a light green background but the protein bands dramatically darkened to a green color. […] Again, the color of the background darkened to a greater degree when greater concentrations of dye were used.
The gels above (from Example 7) were placed in 5% acetic acid following termination of the electrophoretic separation. Within 1-2 minutes, all the gels turned light green and the color of the stained bands intensified such that all proteins were visible--even in the lane containing 0.25 μg protein/band.
The gels above (Example 9) were placed in 5% acetic acid following termination of the electrophoretic separation. Within 1-2 minutes, all the gels turned light green and the color of the stained bands intensified such that all proteins were visible--even in the lanes containing 0.25 μg protein/band.

[5] = tested on: Promega Mid-Range Molecular Weight Markers; assay: Detection of proteins during SDS-PAGE electrophoresis (dye in cathode buffer); conditions: 10% SDS-PAGE, dye in cathode buffer, white plastic card behind gel
From the text: Solutions for the formation and electrophoresis of proteins were made according to the instructions given in Experiments in Gene Fusions, Silhavy, Berman, Enquist, Cold Spring Harbor Laboratory Press, Cold Spring Harbor, N.Y. with the following changes:
a) The SDS concentration in the upper and lower gel buffer components were reduced to result in a 0.05% final SDS concentration in the gel. Thus, the composition of 4× upper gel buffer was 0.5M Tris-HCl, pH 6.8, 0.2 % (w/v) sodium dodecylsulfate (SDS) and the composition of 4× lower gel buffer was 1.5M Tris-HCl, pHS.8, 0.2 % (w/v) SDS.
b) The SDS concentration in the electrophoretic (electrode) buffer was reduced to 0.04% final concentration. Thus, 4× electrode (anode or cathode) buffer was made by dissolving 60 g Tris base, 288 g glycine, and 8 g SDS dissolved in water and then diluting with water to 5 liters. Another name sometimes used for "electrode" buffer is "running" buffer.
c) The SDS concentration in the 2× sample buffer was reduced to 1% final SDS concentration. Thus, 2× sample buffer was made by mixing 0.5 ml of betamercaptoethanol, 0.25 ml of 0.1% (w/v) bromophenol blue, 1 ml of 10 % (w/v) SDS, 3 ml of water, and 5.3 ml of 2× glycerol buffer. 2× glycerol buffer is made by mixing 12.5 ml of 4× upper gel buffer and 20 ml of glycerol and diluting the resulting solution to 60 ml with water. Another name sometimes used for "sample" buffer is "loading" buffer.
d) Electrophoresis was performed using a BIO-RAD miniprotein II electrophoresis apparatus and gels were poured such that i cm of space was present between the bottom of the loading wells and the separating gel.
In other electrophoresis experiments reported in this application, the buffers used were as described above in this example. In some cases, as in this example, where preparation of a solution of dye in 150 ml of cathode (or electrode) buffer is specified, an amount of stock solution of a dye was first added to 150 ml of cathode buffer and then 125 ml of the resulting solution was used to fill the cathode buffer chamber (which holds 125 ml) in the electrophoresis apparatus. In other cases, where addition of stock solution of dye to the cathode buffer is specified without reference to the volume of cathode buffer or with reference to such volume being "125 ml," the stock solution was added directly to 125 ml of cathode buffer already in the cathode buffer chamber.
The samples used were prepared with Promega Mid-Range Molecular Weight Markers solution (Promega Corp., Madison, Wis., USA, Catalog No. V5231) (referred to hereinafter as "Promega Mid-Range [Molecular Weight] Markers or Standards") diluted into Sample Buffer. […]

[6] = Spectral analyses of Coomassie Blue R and Promega Green 1, 2, 3; format: physicochemical
Protocol: The three solutions of Promega Green 1, 2, and 3, from examples 1, 2 and 3 respectively, were diluted approximately 500 fold into a 1:1 solution of methanol:water. The spectra of the resulting solutions and of a 12 μg/ml solution of Coomassie Blue R (in 1:1 methanol:water) were recorded from 700 to 340 nm versus 1:1 methanol:water. […] All of the derivatives gave essentially identical spectra; however, the maximal absorbance of the diluted Promega Green i was about twice that seen for the other derivatives. The derivatives had two peak absorptions in the region of the spectrum scanned, a major peak at around 630 nm and a second peak at around 440 nm. The following absorbances were recorded at the peaks near 630 nm for the three Promega Green dye solutions (diluted 1:500 in 1:1 methanol:water): […]

With `O=C(O)c1cc(NC(=S)Nc2ccc(NC(=S)Nc3ccc(-c4c5ccc(=O)cc-5oc5cc(O)ccc45)c(C(=O)O)c3)cc2)ccc1-c1c2ccc(=O)cc-2oc2cc(O)ccc12` [difluorescein phenylenediamine] the “lowest protein per band stained” value [1] was 200 ng.

In the case of `CCCCCCCCCCNS(=O)(=O)c1cccc2c(N(C)C)cccc12` [decyl derivative], the “lowest protein per band visible” value ([2]; two hours of staining) is reported as 25 ng, the “protein per band at which most of the protein species were visible” value ([2]; after 1% acetic acid, three hours) is reported as 6.25 ng and the “protein per band at which at least some of the bands could be visualized” value ([2]; overnight staining) is reported as 12.5 ng.

For `CCCCCCCCNS(=O)(=O)c1cccc2c(N(C)C)cccc12` [octyl dansyl derivative], the “staining quality compared to the amino or butyl derivatives” value [3] was “much better stains compared to the amino or butyl derivatives”, the “visibility of protein bands” value ([3]; 15 min staining, 0.05 OD328-equivalent in 2% ethanol, 200-12.5 ng per band) was “easily visualized in the photograph of the gel” and the “change in staining of bovine serum albumin and ovalbumin” value ([3]; overnight staining) was “somewhat fainter after the overnight incubation”. For the same compound, the “visibility of protein bands” value ([3]; overnight staining) was “easily visible” and the “staining result relative to n-hexyl derivative” value ([2]; two hours of staining) was “Essentially equivalent results, but with lower fluorescence intensities”.

In the case of `CCOC(=O)c1ccc(NS(=O)(=O)c2cccc3c(N(C)C)cccc23)cc1`, the “lowest protein per band visible” value ([2]; two hours of staining) is reported as 25 ng.

With `CCOC(=O)c1ccc(NC(=S)Nc2ccc(-c3c4ccc(=O)cc-4oc4cc(O)ccc34)c(C(=O)O)c2)cc1` [ethyl p-amino benzoic acid fluorescein] the “lowest protein per band with visible bands” value [1] was 75 ng and the “lowest protein per band stained” value [1] was 200 ng.

In the case of `CCCCCCCCCCCC(=O)N(c1ccc(OCC)cc1)c1ccc(C(=C2C=CC(=[N+](CC)Cc3cccc(S(=O)(=O)[O-])c3)C=C2)c2ccc(N(CC)Cc3cccc(S(=O)(=O)O)c3)cc2)cc1` [Promega Green 3], the “lowest protein amount per band visible after enhancement” value ([4]; 1-2 minutes) is reported as 0.25 µg, the “staining after overnight incubation” value ([4]; overnight) is reported as “darker background color” and the “lowest protein amount per band visible while the gel was running” value [5] is reported as 1.0 µg. For the same compound, the “Absorbance at the peak near 630 nm” value ([6]; diluted 1:500 in 1:1 methanol:water) was 0.83.

For `CCCCNS(=O)(=O)c1cccc2c(N(C)C)cccc12` [n-butyl dansyl derivative], the “lowest protein per band visible” value ([2]; two hours of staining) was 300 ng.

For `CCOc1ccc(Nc2ccc(C(=C3C=CC(=[N+](CC)Cc4cccc(S(=O)(=O)[O-])c4)C=C3)c3ccc(N(CC)Cc4cccc(S(=O)(=O)O)c4)cc3)cc2)cc1` [Coomassie Blue R, reference compound], the “maximal absorbance wavelength (major peak)” value ([6]; 1:1 methanol:water, 700 to 340 nm) was “around 590 nm”.

With `CN(C)c1cccc2c(S(N)(=O)=O)cccc12` [control dansyl amine, reference compound] the “visibility of protein bands” value ([3]; overnight staining) was “no bands were seen”.

In the case of `NC(=S)Nc1ccc(-c2c3ccc(=O)cc-3oc3cc(O)ccc23)c(C(=O)O)c1` [reference compound], the “lowest protein per band with visible bands” value [1] is reported as 200 ng, the standards detected [1] is reported as 97, 66, 55 and 40 kDa and the “lowest protein per band stained” value [1] is reported as 500 ng.

For `CCCCCCNS(=O)(=O)c1cccc2c(N(C)C)cccc12` [n-hexyl derivative], the “lowest protein per band visible” value ([2]; two hours of staining) was 25 ng and the “protein per band at which some of the bands were visible” value ([2]; two hours of staining) was 12.5 ng.

In the case of `O=C(O)c1ccc(NC(=S)Nc2ccc(-c3c4ccc(=O)cc-4oc4cc(O)ccc34)c(C(=O)O)c2)cc1` [p-amino benzoic acid fluorescein], the “lowest protein per band with visible bands” value [1] is reported as 200 ng, the standards detected [1] is reported as 97, 55, 40 and 31 kDa and the “lowest protein per band stained” value [1] is reported as 200 ng.
